# Article PMC12892976, “Alkylation-based optimization of antifungal FPPS inhibitors yields a potent, broad-spectrum lipophilic zoledronate derivative” (mBio, 2025)
# Key:
# [1] = system: Saccharomyces cerevisiae; assay: MIC/MFC broth microdilution (CLSI); assay type: cell-based; details: Saccharomyces cerevisiae S288c
# Protocol: (§1) Antifungal susceptibility was determined by broth microdilution according to the CLSI guidelines described in M27-Ed4 ([16]). […] MFC was determined by back-plating drug-treated cultures from MIC broths onto SDA plates. The MFC was defined as the lowest concentration from which no colonies could be cultured.
# [2] = system: Cryptococcus neoformans; assay: checkerboard drug interaction (FICI, MICc); assay type: cell-based;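 note: antifungal plus FPPS inhibitor pairs tested against Cryptococcus neoformans by simplified diagonal checkerboard screening, FICI computed under the Loewe additivity model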
# Protocol: (§2) Drug interactions between antifungals and FPPS inhibitors were investigated using a simplified checkerboard diagonal screening method ([45]). […] FICIs were determined according to the Loewe additivity model ([17]).
# [3] = system: Aspergillus felis; assay: MIC broth microdilution (CLSI); assay type: cell-based; details: Aspergillus felis IHE87256683D6
# Protocol: (§3) Antifungal susceptibility was determined by broth microdilution according to the CLSI guidelines described in M27-Ed4 ([16]).
# [4] = system: eight fungal species; assay: MIC/MFC summary across the eight fungal species of Table 1; assay type: cell-based
# Protocol: The antifungal activity of these compounds was evaluated according to CLSI guidelines ([16]).
# [5] = system: Cryptococcus bacillisporus; assay: MIC broth microdilution (CLSI); assay type: cell-based; details: Cryptococcus bacillisporus NIH179
# Protocol: as §3
# [6] = system: Aspergillus flavus; assay: checkerboard drug interaction (FICI, MICc); assay type: cell-based;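 note: simplified diagonal checkerboard screen pairing azole antifungals with FPPS inhibitors, FICI calculated under the Loewe additivity model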
# Protocol: as §2
# [7] = system: Candida albicans; assay: checkerboard drug interaction (FICI, MICc); assay type: cell-based;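 note: antifungal plus FPPS inhibitor combinations on Candida albicans tested by a simplified diagonal checkerboard screen, with FICI calculated under the Loewe additivity model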
# Protocol: as §2
# [8] = system: Candida albicans; assay: MIC/MFC broth microdilution (CLSI); assay type: cell-based; details: Candida albicans SC5314
# Protocol: as §1
# [9] = system: Aspergillus fumigatus; assay: MIC/MFC broth microdilution (CLSI); details: ATCC204305
# Protocol: as §1
# [10] = system: Cryptococcus deuterogattii; assay: checkerboard drug interaction (FICI, MICc); assay type: cell-based;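 note: simplified diagonal checkerboard screen pairing antifungal drugs with FPPS inhibitors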
# Protocol: as §2
# [11] = system: Candida glabrata; assay: MIC/MFC broth microdilution (CLSI); details: for MIC / MEC: Candida glabrata CBS138 (ATCC 2001);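 for all read-outs here: broth microdilution following CLSI M27-Ed4, MFC taken as the lowest drug level yielding no growth once MIC wells were subcultured on SDA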
# Protocol: as §1
# [12] = system: Aspergillus flavus; assay: MIC/MFC broth microdilution (CLSI); details: ATCC204304
# Protocol: as §1
# [13] = system: Saccharomyces cerevisiae; assay: checkerboard drug interaction (FICI, MICc); assay type: cell-based;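 note: simplified diagonal checkerboard screen pairing antifungals with FPPS inhibitors, FICI calculated under the Loewe additivity model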
# Protocol: as §2
# [14] = system: Trichophyton rubrum; assay: checkerboard drug interaction (FICI, MICc); assay type: cell-based;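 note: simplified diagonal checkerboard screen pairing azole antifungals with FPPS inhibitors, FICI calculated under the Loewe additivity model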
# Protocol: as §2
# [15] = system: Candida glabrata; assay: checkerboard drug interaction (FICI, MICc); assay type: cell-based;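 note: simplified diagonal checkerboard screen pairing antifungals with FPPS inhibitors, FICI calculated under the Loewe additivity model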
# Protocol: as §2
# [16] = system: Aspergillus terreus; assay: MIC broth microdilution (CLSI); assay type: cell-based; details: Aspergillus terreus 75-16-089-2500
# Protocol: as §3
# [17] = system: Aspergillus fumigatus; assay: checkerboard drug interaction (FICI, MICc); assay type: cell-based;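 note: simplified diagonal checkerboard screen pairing antifungals with FPPS inhibitors against Aspergillus fumigatus, with FICI calculated under the Loewe additivity model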
# Protocol: as §2
# [18] = system: Trichophyton rubrum; assay: MIC/MFC broth microdilution (CLSI); details: for MIC / MEC: Trichophyton rubrum R-218
# Protocol: as §1
# [19] = system: Cryptococcus deuterogattii; assay: MIC/MFC broth microdilution (CLSI); details: for MIC / MEC: Cryptococcus deuterogattii R265;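 for all read-outs here: broth microdilution per CLSI M27-Ed4. MFC is the lowest concentration yielding no colonies when MIC broths are subcultured onto SDA plates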
# Protocol: as §1
# [20] = system: Cryptococcus neoformans; assay: MIC/MFC broth microdilution (CLSI); details: for MIC / MEC: Cryptococcus neoformans H99;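 for all read-outs here: susceptibility testing followed the CLSI M27-Ed4 broth microdilution document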
# Protocol: as §1
smiles,measurement,setting,value
"CCC(C)n1ncn(-c2ccc(N3CCN(c4ccc(OCC5COC(Cn6cncn6)(c6ccc(Cl)cc6Cl)O5)cc4)CC3)cc2)c1=O (stereo not drawn) [ITR, itraconazole]",MFC,[1],1 µg/mL
same,MIC,[1],0.25 µg/mL
same,MIC / MEC,[1],0.25 µg/mL
same,antifungal MICc,[2]; in combination with 10-ZOL,0.063
same,antifungal MICc,[2]; in combination with ZOL,0.125
same,MIC / MEC,[3],2 µg/mL
same,MFC,"[4]; across eight species, read-out: Geometric mean MFC",3.7 µg/mL
same,MIC,[4]; read-out: Geometric mean MIC,0.5 µg/mL
same,MIC / MEC,[5],0.06 µg/mL
same,antifungal MICc,[6]; in combination with 10-ZOL,0.5
same,antifungal MICc,[6]; in combination with ZOL,0.5
same,antifungal MICc,[7]; in combination with 10-ZOL,0.25
same,antifungal MICc,[7]; in combination with ZOL,0.25
same,MFC,[8],2 µg/mL
same,MIC,[8],0.25 µg/mL
same,MIC / MEC,[8],0.25 µg/mL
same,MFC,[9],4 µg/mL
same,MIC,[9],0.125 µg/mL
same,MIC / MEC,[9],0.13 µg/mL
same,antifungal MICc,[10]; in combination with 10-ZOL,0.125
same,antifungal MICc,[10]; in combination with ZOL,0.25
same,MIC / MEC,[11],0.13 µg/mL
same,MFC,"[11]; Nakaseomyces glabratus, CBS138",4 µg/mL
same,MIC,"[11]; Nakaseomyces glabratus, CBS138",0.125 µg/mL
same,MFC,[12],2 µg/mL
same,MIC,[12],0.5 µg/mL
same,MIC / MEC,[12],0.5 µg/mL
same,antifungal MICc,[13]; in combination with 10-ZOL,0.125
same,antifungal MICc,[13]; in combination with ZOL,0.063
same,antifungal MICc,[14]; in combination with 10-ZOL,1
same,antifungal MICc,[14]; in combination with ZOL,2
same,antifungal MICc,[15]; in combination with 10-ZOL,0.031
same,antifungal MICc,[15]; in combination with ZOL,0.016
same,MIC / MEC,[16],0.5 µg/mL
same,antifungal MICc,[17]; in combination with 10-ZOL,0.063
same,antifungal MICc,[17]; in combination with ZOL,0.063
same,MFC,[18]; Trichophyton rubrum,> 16 µg/mL
same,MIC,[18]; Trichophyton rubrum,8 µg/mL
same,MIC / MEC,[18],8 µg/mL
same,MFC,[19]; Cryptococcus deuterogattii,4 µg/mL
same,MIC,[19]; Cryptococcus deuterogattii,1 µg/mL
same,MIC / MEC,[19],1 µg/mL
same,MFC,[20]; Cryptococcus neoformans,4 µg/mL
same,MIC,[20]; Cryptococcus neoformans,0.5 µg/mL
same,MIC / MEC,[20],0.5 µg/mL
"Nc1nc(=O)[nH]cc1F [5FC, 5-flucytosine]",MIC / MEC,[1],1 µg/mL
same,antifungal MICc,[2]; in combination with 10-ZOL,0.25
same,antifungal MICc,[2]; in combination with ZOL,1
same,MIC / MEC,[3],>64 µg/mL
same,MIC / MEC,[5],4 µg/mL
same,antifungal MICc,[6]; in combination with 10-ZOL,256
same,antifungal MICc,[6]; in combination with ZOL,128
same,antifungal MICc,[7]; in combination with 10-ZOL,0.125
same,antifungal MICc,[7]; in combination with ZOL,0.25
same,MIC / MEC,[8],0.25 µg/mL
same,MIC / MEC,[9],>64 µg/mL
same,antifungal MICc,[10]; in combination with 10-ZOL,0.5
same,antifungal MICc,[10]; in combination with ZOL,0.125
same,MIC / MEC,[11],0.25 µg/mL
same,MIC / MEC,[12],>64 µg/mL
same,antifungal MICc,[13]; in combination with 10-ZOL,1
same,antifungal MICc,[13]; in combination with ZOL,1
same,antifungal MICc,[14]; in combination with 10-ZOL,32
same,antifungal MICc,[14]; in combination with ZOL,128
same,antifungal MICc,[15]; in combination with 10-ZOL,0.125
same,antifungal MICc,[15]; in combination with ZOL,0.125
same,MIC / MEC,[16],64 µg/mL
same,antifungal MICc,[17]; in combination with 10-ZOL,256
same,antifungal MICc,[17]; in combination with ZOL,128
same,MIC / MEC,[18],>64 µg/mL
same,MIC / MEC,[19],8 µg/mL
same,MIC / MEC,[20],4 µg/mL
